Test results published in ChEMBL document CHEMBL5550160, “Leveraging a rationally designed veliparib-based anilide eliciting anti-leukemic effects for the design of pH-responsive polymer nanoformulation” (Eur J Med Chem, 2024).
The source made the active and inactive calls. The calls are words filed in the database; no cut-off is given here.

Experiments:
[1] = target: Histone deacetylase 9 (Homo sapiens) (UniProt Q9UKV0); experiment: Inhibition of HDAC9 (unknown origin) assessed as residual activity at 1.23 x 10^-7M (reference value: 97.55%); settings: dose 1.23 10^-7M
Chain of Histone deacetylase 9 (Homo sapiens) (Q9UKV0 whole entry): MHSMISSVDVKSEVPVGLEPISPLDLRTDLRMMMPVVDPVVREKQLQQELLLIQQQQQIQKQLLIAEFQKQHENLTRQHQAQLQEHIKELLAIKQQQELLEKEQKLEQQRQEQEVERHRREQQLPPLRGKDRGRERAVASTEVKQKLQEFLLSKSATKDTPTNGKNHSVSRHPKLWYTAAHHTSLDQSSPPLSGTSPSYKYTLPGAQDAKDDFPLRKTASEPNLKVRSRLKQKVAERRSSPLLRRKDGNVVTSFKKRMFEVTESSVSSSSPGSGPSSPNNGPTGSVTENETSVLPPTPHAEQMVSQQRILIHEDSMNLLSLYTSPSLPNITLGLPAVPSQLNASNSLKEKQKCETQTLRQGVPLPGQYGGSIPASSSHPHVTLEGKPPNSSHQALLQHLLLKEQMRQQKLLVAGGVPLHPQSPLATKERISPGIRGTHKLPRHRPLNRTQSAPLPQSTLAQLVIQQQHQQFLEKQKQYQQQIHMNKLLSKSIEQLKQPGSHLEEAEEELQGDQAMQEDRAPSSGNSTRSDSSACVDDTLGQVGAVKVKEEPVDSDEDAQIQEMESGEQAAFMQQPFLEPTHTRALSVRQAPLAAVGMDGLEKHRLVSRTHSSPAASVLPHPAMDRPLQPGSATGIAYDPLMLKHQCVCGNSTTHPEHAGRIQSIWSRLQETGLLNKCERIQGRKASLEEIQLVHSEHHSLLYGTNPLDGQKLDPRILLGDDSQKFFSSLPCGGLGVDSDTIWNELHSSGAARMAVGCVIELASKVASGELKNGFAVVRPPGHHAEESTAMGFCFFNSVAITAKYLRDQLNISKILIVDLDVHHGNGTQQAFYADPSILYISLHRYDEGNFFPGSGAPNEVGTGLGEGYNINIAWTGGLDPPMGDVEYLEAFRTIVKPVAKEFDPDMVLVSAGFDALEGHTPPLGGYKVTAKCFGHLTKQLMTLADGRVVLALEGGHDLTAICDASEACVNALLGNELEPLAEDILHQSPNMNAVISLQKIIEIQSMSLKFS

[2] = target: T1, Histone deacetylase 8 (Homo sapiens) (UniProt Q9BY41); experiment: Inhibition of HDAC8 (unknown origin) assessed as residual activity at 1.23 x 10^-7M (reference value: 100%); settings: dose 1.23 10^-7M
T1 sequence (whole entry): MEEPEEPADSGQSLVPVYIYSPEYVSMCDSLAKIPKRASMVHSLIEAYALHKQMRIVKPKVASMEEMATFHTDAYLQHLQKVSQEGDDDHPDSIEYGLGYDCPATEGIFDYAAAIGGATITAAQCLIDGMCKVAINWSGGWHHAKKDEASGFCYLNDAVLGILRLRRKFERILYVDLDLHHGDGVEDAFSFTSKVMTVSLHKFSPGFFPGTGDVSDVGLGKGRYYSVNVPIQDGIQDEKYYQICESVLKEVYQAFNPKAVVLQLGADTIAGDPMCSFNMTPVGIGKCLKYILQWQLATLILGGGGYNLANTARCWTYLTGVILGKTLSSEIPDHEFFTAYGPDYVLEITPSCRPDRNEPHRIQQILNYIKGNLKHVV

Histone deacetylase 3 [3] = target: T2, Histone deacetylase 3 (Homo sapiens, UniProt O15379); experiment: Inhibition of HDAC3 (unknown origin) using p53 residues 379 to 382 [RHKK(Ac)] as fluorogenic substrate assessed as residual activity at 1.11 x 10^-6M (reference value: 103.08%); settings: dose 1.1 10^-6M
T2 sequence (O15379 whole entry, the tested form may be a part): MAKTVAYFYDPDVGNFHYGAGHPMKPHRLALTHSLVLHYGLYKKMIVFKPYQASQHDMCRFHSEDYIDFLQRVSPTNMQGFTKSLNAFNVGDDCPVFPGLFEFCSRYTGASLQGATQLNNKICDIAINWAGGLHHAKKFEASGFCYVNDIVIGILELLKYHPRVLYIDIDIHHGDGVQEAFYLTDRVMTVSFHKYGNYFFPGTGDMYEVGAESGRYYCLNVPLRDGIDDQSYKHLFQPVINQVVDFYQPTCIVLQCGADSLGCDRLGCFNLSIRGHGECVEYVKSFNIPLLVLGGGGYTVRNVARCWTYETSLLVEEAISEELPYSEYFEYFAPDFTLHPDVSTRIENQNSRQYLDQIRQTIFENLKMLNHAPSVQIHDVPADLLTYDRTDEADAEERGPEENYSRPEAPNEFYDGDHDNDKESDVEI

HL-60 [4] = experiment: Upregulation of gammaH2AX protein expression in human HL-60 cells at 0.5 to 1 times IC50 by Western blot analysis; type: functional, cell-based
[5] = target: Histone deacetylase 4 (Homo sapiens) (UniProt P56524); experiment: Inhibition of HDAC4 (unknown origin) assessed as residual activity at 3.70 x 10^-7M (reference value: 98.90%); settings: dose 3.7 10^-7M
Chain of Histone deacetylase 4 (Homo sapiens) (P56524 whole entry): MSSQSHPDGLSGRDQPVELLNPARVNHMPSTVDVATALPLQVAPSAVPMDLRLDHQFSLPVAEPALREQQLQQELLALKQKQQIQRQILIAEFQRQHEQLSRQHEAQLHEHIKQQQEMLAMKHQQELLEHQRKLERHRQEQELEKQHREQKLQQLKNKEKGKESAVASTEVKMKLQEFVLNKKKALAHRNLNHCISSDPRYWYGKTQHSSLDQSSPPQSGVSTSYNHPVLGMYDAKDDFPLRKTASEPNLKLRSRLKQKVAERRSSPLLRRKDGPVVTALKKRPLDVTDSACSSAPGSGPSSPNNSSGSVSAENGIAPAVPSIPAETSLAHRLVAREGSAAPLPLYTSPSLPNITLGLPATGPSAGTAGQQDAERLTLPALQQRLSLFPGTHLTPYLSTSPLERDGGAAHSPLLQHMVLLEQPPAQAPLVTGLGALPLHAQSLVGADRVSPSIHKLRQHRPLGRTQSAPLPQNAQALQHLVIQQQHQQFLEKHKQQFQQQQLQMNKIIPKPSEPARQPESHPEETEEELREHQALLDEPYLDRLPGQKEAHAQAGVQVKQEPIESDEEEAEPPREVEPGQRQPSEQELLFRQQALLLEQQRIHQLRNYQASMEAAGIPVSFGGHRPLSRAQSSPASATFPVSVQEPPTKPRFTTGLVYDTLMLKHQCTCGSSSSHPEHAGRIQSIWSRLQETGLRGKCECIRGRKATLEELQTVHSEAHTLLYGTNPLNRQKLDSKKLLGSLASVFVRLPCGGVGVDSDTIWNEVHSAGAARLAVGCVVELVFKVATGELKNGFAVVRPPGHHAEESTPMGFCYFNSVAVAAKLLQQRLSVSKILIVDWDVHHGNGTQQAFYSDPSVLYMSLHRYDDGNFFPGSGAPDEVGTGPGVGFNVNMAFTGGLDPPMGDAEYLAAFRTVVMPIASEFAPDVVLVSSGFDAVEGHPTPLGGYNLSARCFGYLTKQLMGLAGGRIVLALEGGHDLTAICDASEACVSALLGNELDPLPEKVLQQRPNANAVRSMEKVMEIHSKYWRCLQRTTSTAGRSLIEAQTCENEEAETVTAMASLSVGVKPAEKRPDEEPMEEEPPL

HL-60 [6] = experiment: Downregulation of HDAC1 protein expression in human HL-60 cells by Western blot analysis; type: functional, cell-based; settings: dose 0.2-5 µM
[7] = target: T1, Histone deacetylase 8 (Homo sapiens); experiment: Inhibition of HDAC8 (unknown origin) assessed as residual activity at 1.37 x 10^-8M (reference value: 100%); settings: dose 1.37 10^-8M
[8] = target: T3, Protein deacetylase HDAC6 (Homo sapiens) (UniProt Q9UBN7); experiment: Inhibition of HDAC6 (unknown origin) using p53 residues 379 to 382 [RHKK(Ac)] as fluorogenic substrate assessed as residual activity at 1.37 x 10^-8M (reference value: 101.06%); settings: dose 1.37 10^-8M
T3 sequence (whole entry): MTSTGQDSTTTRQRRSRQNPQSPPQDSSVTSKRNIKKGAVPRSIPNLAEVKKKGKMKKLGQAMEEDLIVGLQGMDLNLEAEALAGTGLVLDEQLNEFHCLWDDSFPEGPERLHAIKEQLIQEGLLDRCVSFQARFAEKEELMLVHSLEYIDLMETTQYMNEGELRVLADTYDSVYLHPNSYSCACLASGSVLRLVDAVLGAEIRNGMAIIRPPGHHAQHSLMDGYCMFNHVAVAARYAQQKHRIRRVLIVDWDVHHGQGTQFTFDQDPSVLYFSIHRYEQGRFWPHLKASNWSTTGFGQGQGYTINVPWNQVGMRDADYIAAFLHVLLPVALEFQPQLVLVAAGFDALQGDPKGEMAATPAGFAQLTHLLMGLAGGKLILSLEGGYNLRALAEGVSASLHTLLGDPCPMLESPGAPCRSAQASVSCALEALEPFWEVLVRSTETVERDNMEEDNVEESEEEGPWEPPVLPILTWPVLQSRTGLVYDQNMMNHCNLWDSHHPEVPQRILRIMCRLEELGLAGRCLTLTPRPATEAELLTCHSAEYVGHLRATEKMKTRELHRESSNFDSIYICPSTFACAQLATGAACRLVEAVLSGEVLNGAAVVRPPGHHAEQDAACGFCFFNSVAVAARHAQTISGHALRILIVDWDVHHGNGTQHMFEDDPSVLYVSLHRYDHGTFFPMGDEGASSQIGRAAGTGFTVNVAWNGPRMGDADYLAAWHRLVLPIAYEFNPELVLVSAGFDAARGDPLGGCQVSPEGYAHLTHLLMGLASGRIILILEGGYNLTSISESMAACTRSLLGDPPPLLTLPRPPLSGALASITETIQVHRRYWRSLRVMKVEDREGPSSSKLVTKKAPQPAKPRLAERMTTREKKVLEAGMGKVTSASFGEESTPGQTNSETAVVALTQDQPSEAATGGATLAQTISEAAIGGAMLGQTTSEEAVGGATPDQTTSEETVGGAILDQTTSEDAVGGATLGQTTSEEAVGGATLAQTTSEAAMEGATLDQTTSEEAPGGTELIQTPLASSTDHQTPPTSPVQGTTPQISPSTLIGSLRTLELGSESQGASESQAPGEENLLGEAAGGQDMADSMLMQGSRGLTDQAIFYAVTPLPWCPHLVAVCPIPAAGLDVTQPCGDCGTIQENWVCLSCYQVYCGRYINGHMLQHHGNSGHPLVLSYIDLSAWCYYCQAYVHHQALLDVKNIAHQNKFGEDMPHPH

HL-60 [9] = experiment: cells; settings: Homo sapiens
Description: Antiproliferative activity against human HL-60 cells assessed as inhibition of cell growth by MTT assay

Histone deacetylase 3 [10] = target: T2, Histone deacetylase 3; experiment: Inhibition of HDAC3 (unknown origin) using p53 residues 379 to 382 [RHKK(Ac)] as fluorogenic substrate assessed as residual activity at 1.52 x 10^-9M (reference value: 103.08%); settings: dose 1.52 10^-9M
Histone deacetylase 1 [11] = target: T4, Histone deacetylase 1 (Homo sapiens, UniProt Q13547); experiment: Inhibition of HDAC1 (unknown origin) using p53 residues 379 to 382 [RHKK(Ac)] as fluorogenic substrate assessed as residual activity at 4.57 x 10^-9M (reference value: 98.06%); settings: dose 4.57 10^-9M
T4 sequence (Q13547 whole entry, the tested form may be a part): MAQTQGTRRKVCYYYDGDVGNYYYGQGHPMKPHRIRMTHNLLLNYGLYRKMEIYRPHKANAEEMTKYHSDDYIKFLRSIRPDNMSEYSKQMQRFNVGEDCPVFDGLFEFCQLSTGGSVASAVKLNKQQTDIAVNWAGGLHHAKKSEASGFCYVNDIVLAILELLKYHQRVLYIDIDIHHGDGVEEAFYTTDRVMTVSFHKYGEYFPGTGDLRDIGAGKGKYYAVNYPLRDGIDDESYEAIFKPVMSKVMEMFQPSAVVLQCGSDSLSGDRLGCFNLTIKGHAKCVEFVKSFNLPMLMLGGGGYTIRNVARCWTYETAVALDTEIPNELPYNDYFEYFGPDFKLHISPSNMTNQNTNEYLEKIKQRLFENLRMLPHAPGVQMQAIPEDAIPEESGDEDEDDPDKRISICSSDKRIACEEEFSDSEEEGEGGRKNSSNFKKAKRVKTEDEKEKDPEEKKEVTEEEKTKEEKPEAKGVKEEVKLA

[12] = target: Histone deacetylase 9 (Homo sapiens) (UniProt Q9UKV0); experiment: Inhibition of HDAC9 (unknown origin) assessed as residual activity at 1 x 10^-5M (reference value: 97.55%); settings: dose 1.0 10^-5M
[13] = target: Histone deacetylase 5 (Homo sapiens) (UniProt Q9UQL6); experiment: Inhibition of HDAC5 (unknown origin) assessed as residual activity at 1.1 x 10^-6M (reference value: 100%); settings: dose 1.1 10^-6M
Chain of Histone deacetylase 5 (Homo sapiens) (Q9UQL6 whole entry, the tested form may be a part): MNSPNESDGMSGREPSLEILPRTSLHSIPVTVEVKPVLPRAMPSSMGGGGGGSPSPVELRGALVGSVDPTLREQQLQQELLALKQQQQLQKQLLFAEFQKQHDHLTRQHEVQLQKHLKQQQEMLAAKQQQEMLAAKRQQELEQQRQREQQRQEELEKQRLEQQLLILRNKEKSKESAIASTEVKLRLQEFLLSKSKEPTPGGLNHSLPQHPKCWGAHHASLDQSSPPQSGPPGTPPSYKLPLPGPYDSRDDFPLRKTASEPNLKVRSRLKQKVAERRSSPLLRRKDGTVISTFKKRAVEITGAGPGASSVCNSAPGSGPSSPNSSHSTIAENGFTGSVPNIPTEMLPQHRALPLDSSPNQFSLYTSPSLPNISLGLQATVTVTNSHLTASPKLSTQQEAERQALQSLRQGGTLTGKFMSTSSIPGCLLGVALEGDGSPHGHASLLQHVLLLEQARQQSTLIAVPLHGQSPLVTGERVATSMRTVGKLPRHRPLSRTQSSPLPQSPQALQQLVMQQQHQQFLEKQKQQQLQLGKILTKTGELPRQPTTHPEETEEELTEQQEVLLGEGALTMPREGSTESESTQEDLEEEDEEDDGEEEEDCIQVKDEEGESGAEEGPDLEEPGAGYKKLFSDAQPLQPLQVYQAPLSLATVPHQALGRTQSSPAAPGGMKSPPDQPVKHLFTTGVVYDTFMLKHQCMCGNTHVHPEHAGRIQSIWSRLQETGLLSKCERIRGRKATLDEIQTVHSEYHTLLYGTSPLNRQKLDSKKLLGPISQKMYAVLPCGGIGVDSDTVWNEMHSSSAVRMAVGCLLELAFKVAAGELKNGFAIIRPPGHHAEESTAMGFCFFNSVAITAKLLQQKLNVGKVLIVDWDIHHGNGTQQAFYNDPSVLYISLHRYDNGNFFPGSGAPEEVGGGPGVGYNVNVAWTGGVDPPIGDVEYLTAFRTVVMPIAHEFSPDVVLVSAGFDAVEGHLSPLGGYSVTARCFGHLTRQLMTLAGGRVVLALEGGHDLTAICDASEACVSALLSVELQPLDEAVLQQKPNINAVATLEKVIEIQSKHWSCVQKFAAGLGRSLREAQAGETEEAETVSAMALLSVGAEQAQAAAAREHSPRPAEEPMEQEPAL

Histone deacetylase 1 [14] = target: T4, Histone deacetylase 1; experiment: Inhibition of HDAC1 (unknown origin) using p53 residues 379 to 382 [RHKK(Ac)] as fluorogenic substrate assessed as residual activity at 1.37 x 10^-8M (reference value: 98.06%); settings: dose 1.37 10^-8M
Histone deacetylase 1 [15] = target: T4, Histone deacetylase 1; experiment: Inhibition of HDAC1 (unknown origin) using p53 residues 379 to 382 [RHKK(Ac)] as fluorogenic substrate assessed as residual activity at 3.70 x 10^-7M (reference value: 98.06%); settings: dose 3.7 10^-7M
HL-60 [16] = experiment: Downregulation of PAR protein expression in human HL-60 cells at 0.5 to 1 times IC50 measured after 24 hrs by Western blot analysis; type: functional, cell-based

Activity [1]: 88.5% | Activity [2]: 104% | Activity (Histone deacetylase 3 [3]): 21.7% | Activity [5]: 108% | Activity [7]: 104% | Activity [8]: 103% | IC50 (HL-60 [9]): 690 nM | Activity (Histone deacetylase 3 [10]): 97.7% | Activity (Histone deacetylase 1 [11]): 88.7% | Activity [12]: 100% | Activity [13]: 93% | Activity (Histone deacetylase 1 [14]): 73.9% | Activity (Histone deacetylase 1 [15]): 16.9%
SMILES: NC(=O)c1cccc2[nH]c(-c3ccc(NCc4ccc(C(=O)Nc5ccccc5N)cc4)cc3)nc12
Activity (HL-60 [4]): Active | Activity (HL-60 [6]): Dose-Dependent Effect | Activity (HL-60 [16]): Dose-Dependent Effect
